From ChEMBL document CHEMBL2311358, “Inhibitors of HIV-1 attachment. Part 7: indole-7-carboxamides as potent and orally bioavailable antiviral agents” (Bioorg Med Chem Lett, 2013)
≈ marks a conversion by molar mass, not a printed value.

Tests used:
[1] = test system: Human immunodeficiency virus 1; assay: Antiviral activity against HIV1 JRFL infected in human HeLa cells expressing CD4 and CCR5 assessed as inhibition of single-cycle viral replication by luciferase reporter gene assay; format: functional, organism-based; details: Human immunodeficiency virus 1, JRFL
[2] = Permeability across human Caco2 cells at pH 6.5; format: ADME, cell-based; details: Caco-2, pH 6.5, read-out: permeability
[3] = Aqueous solubility of the compound in crystalline form at pH 6.5; format: physicochemical
[4] = Cytotoxicity against human HeLa cells expressing CD4 assessed as cell viability after 6 days by XTT assay; format: cell-based
[5] = Clearance in rat at 1 mg/kg, iv; format: ADME, organism-based; design: dose 1 mg/kg, route intravenous; details: in vivo
[6] = Half life in human liver microsomes; format: ADME, Microsome
[7] = Oral bioavailability in rat at 5 mg/kg; format: ADME, organism-based; details: in vivo
[8] = Half life in rat at 1 mg/kg, iv; format: ADME, organism-based; design: dose 1 mg/kg, route intravenous; details: in vivo
[9] = Plasma protein binding in human; format: ADME, cell-free; details: read-out: PPB (converted)
[10] = Cmax in dog at 1 mg/kg, iv and 2.5 mg/kg, po; format: ADME, organism-based, Canis lupus familiaris; details: in vivo
[11] = AUC in dog at 1 mg/kg, iv and 2.5 mg/kg, po; format: ADME, organism-based, Canis lupus familiaris; details: plasma
[12] = Oral bioavailability in monkey at 2.5 mg/kg; format: ADME, organism-based, Macaca mulatta; details: rhesus monkey, in vivo
[13] = Half life in dog at 1 mg/kg, iv; format: ADME, organism-based, Canis lupus familiaris; design: dose 1 mg/kg, route intravenous; details: in vivo
[14] = AUC in monkey at 1 mg/kg, iv and 2.5 mg/kg, po; format: ADME, organism-based, Macaca mulatta; details: rhesus monkey, plasma
[15] = Half life in monkey at 1 mg/kg, iv; format: ADME, organism-based, Macaca mulatta; design: dose 1 mg/kg, route intravenous; details: rhesus monkey, in vivo
[16] = Oral bioavailability in dog at 2.5 mg/kg; format: ADME, organism-based, Canis lupus familiaris; details: in vivo
Hepatocyte = assay: Cytotoxicity against human hepatocytes expressing CYP3A4, CYP2C9, CYP2C19, CYP2D6; format: ADME, cell-based
[17] = AUC in rat at 1 mg/kg, iv and 5 mg/kg, po; format: ADME, organism-based; details: plasma
[18] = Cmax in rat at 1 mg/kg, iv and 5 mg/kg, po; format: ADME, organism-based; details: in vivo
[19] = Inhibition of CYP450 (unknown origin); format: ADME, Homo sapiens
[20] = Cmax in monkey at 1 mg/kg, iv and 2.5 mg/kg, po; format: ADME, organism-based, Macaca mulatta; details: rhesus monkey, in vivo
[21] = Solubility of the compound in amorphous form in PEG 400 at pH 6.5; format: physicochemical; details: PEG 400, pH 6.5

Row | Compound | EC50 [1] [nM] | CC50 at 144 h [4] [nM] | also measured
1 | O=C(C(=O)N1CCN(C(=O)c2ccccc2)CC1)c1c[nH]c2cccc(F)c12 | 1.24 | > 300000 | Papp [2]: 10 ×10⁻⁶ cm/s; solubility ([3]; buffer): 0.005 µg/mL (≈ 0.0132 µM); clearance [5]: 48 mL/min/kg; half-life [6]: > 1.67 h
2 | CCn1nccc1NC(=O)c1ccc(F)c2c(C(=O)C(=O)N3CCN(C(=O)c4ccccc4)CC3)c[nH]c12 | 3.07 | 166000 | 
3 | Cc1cc(NC(=O)c2ccc(F)c3c(C(=O)C(=O)N4CCN(C(=O)c5ccccc5)CC4)c[nH]c23)on1 | 0.94 | > 300000 | 
4 | O=C(NCc1ccco1)c1ccc(F)c2c(C(=O)C(=O)N3CCN(C(=O)c4ccccc4)CC3)c[nH]c12 | 1.3 | 71000 | 
5 | O=C(NCc1cccs1)c1ccc(F)c2c(C(=O)C(=O)N3CCN(C(=O)c4ccccc4)CC3)c[nH]c12 | 1.06 | 44000 | 
6 | O=C(NCCc1cc2ccccc2[nH]1)c1ccc(F)c2c(C(=O)C(=O)N3CCN(C(=O)c4ccccc4)CC3)c[nH]c12 | 1.08 | > 300000 | 
7 | CS(=O)(=O)NC(=O)c1ccc(F)c2c(C(=O)C(=O)N3CCN(C(=O)c4ccccc4)CC3)c[nH]c12 | 2.64 | > 300000 | 
8 | COc1ccc(C(N)=O)c2[nH]cc(C(=O)C(=O)N3CCN(C(=O)c4ccccc4)CC3)c12 | 0.76 | 244000 | 
9 | CNC(=O)c1ccc(OC)c2c(C(=O)C(=O)N3CCN(C(=O)c4ccccc4)CC3)c[nH]c12 | 0.76 | > 300000 | Papp [2]: 3.9 ×10⁻⁶ cm/s; half-life [6]: 0.667 h
10 | NC(=O)c1ccc(F)c2c(C(=O)C(=O)N3CCN(C(=O)c4ccccn4)CC3)c[nH]c12 | 7.59 | > 300000 | 
11 | C[C@@H]1CN(C(=O)c2ccccn2)CCN1C(=O)C(=O)c1c[nH]c2c(C(N)=O)ccc(F)c12 | 1.42 | > 300000 | 
12 | O=C(Nc1ccncc1)c1ccc(F)c2c(C(=O)C(=O)N3CCN(C(=O)c4ccccc4)CC3)c[nH]c12 | 3.37 | > 300000 | 
13 | O=C(Nc1cccnc1)c1ccc(F)c2c(C(=O)C(=O)N3CCN(C(=O)c4ccccc4)CC3)c[nH]c12 | 9.09 | 132000 | 
14 | NC(=O)c1ccc(F)c2c(C(=O)C(=O)N3CCN(C(=O)c4ccccc4)CC3)c[nH]c12 | 2.03 | > 300000 | bioavailability [7]: 21%; Papp [2]: 2.4 ×10⁻⁶ cm/s; half-life [6]: > 1.67 h
15 | CN(C)C(=O)c1ccc(F)c2c(C(=O)C(=O)N3CCN(C(=O)c4ccccc4)CC3)c[nH]c12 | 407 | > 300000 | 
16 | CONC(=O)c1ccc(F)c2c(C(=O)C(=O)N3CCN(C(=O)c4ccccc4)CC3)c[nH]c12 | 3.83 | > 300000 | 
17 | NNC(=O)c1ccc(F)c2c(C(=O)C(=O)N3CCN(C(=O)c4ccccc4)CC3)c[nH]c12 | 2.69 | > 300000 | 
18 | COCCNC(=O)c1ccc(F)c2c(C(=O)C(=O)N3CCN(C(=O)c4ccccc4)CC3)c[nH]c12 | 18.8 | 298000 | 
19 | NCCNC(=O)c1ccc(F)c2c(C(=O)C(=O)N3CCN(C(=O)c4ccccc4)CC3)c[nH]c12 | 12.8 | 135000 | 
20 | CN(C)CCNC(=O)c1ccc(F)c2c(C(=O)C(=O)N3CCN(C(=O)c4ccccc4)CC3)c[nH]c12 | 316 | > 300000 | 
21 | O=C(NCCN1CCOCC1)c1ccc(F)c2c(C(=O)C(=O)N3CCN(C(=O)c4ccccc4)CC3)c[nH]c12 | 7.95 | > 300000 | 
22 | CC(=O)N1CC(NC(=O)c2ccc(F)c3c(C(=O)C(=O)N4CCN(C(=O)c5ccccc5)CC4)c[nH]c23)C1 | 11.2 | > 300000 | 
23 | O=C(NCc1ccccc1)c1ccc(F)c2c(C(=O)C(=O)N3CCN(C(=O)c4ccccc4)CC3)c[nH]c12 | 109 | > 300000 | 
24 | O=C(NCc1nc2ccccc2[nH]1)c1ccc(F)c2c(C(=O)C(=O)N3CCN(C(=O)c4ccccc4)CC3)c[nH]c12 | 6.73 | > 300000 | 

More lines, in order of falling EC50 [1], values ahead:

Row | EC50 [1] [nM] | Compound | CC50 at 144 h [4] [nM] | also measured
25 | 0.75 | CNC(=O)c1ccc(F)c2c(C(=O)C(=O)N3CCN(C(=O)c4ccccc4)C[C@H]3C)c[nH]c12 | > 300000 | 
26 | 0.75 | COc1ncc(OC)c2c(C(=O)C(=O)N3CCN(C(=O)c4ccccc4)CC3)c[nH]c12 | > 300000 | 
27 | 0.65 | O=C(Nc1ccccn1)c1ccc(F)c2c(C(=O)C(=O)N3CCN(C(=O)c4ccccc4)CC3)c[nH]c12 | 69000 | 
28 | 0.52 | CNC(=O)c1ccc(F)c2c(C(=O)C(=O)N3CCN(C(=O)c4ccccc4)CC3)c[nH]c12 | > 300000 | bioavailability [7]: 65%; half-life [8]: 2.18 h; fraction unbound [9]: 0.011; Papp [2]: 11.2 ×10⁻⁶ cm/s; solubility ([3]; aqueous, read-out: solubility): 33 µg/mL (≈ 75.6 µM); Cmax [10]: 1560 ng/mL; AUC [11]: 7030 ng·h/mL; bioavailability [12]: 70%; half-life [13]: 2.32 h; AUC [14]: 3430 ng·h/mL; half-life [15]: 4.18 h; clearance [5]: 12 mL/min/kg; bioavailability [16]: 93%; IC50 (Hepatocyte): > 57000 nM; AUC [17]: 4620 ng·h/mL; Cmax [18]: 843 ng/mL; IC50 [19]: > 90000 nM; Cmax [20]: 1330 ng/mL; solubility [21]: 18000 µg/mL (≈ 41200 µM); half-life [6]: 1.35 h
29 | 0.4 | O=C(Nc1nnn[nH]1)c1ccc(F)c2c(C(=O)C(=O)N3CCN(C(=O)c4ccccc4)CC3)c[nH]c12 | > 300000 | bioavailability [7]: < 1%; Papp [2]: < 1.5 ×10⁻⁶ cm/s; half-life [6]: > 1.67 h
30 | 0.32 | O=C(Nc1nc2ccccc2s1)c1ccc(F)c2c(C(=O)C(=O)N3CCN(C(=O)c4ccccc4)CC3)c[nH]c12 | 81000 | 
31 | 0.29 | O=C(NS(=O)(=O)c1ccccc1)c1ccc(F)c2c(C(=O)C(=O)N3CCN(C(=O)c4ccccc4)CC3)c[nH]c12 | > 300000 | bioavailability [7]: < 2%; Papp [2]: 1.5 ×10⁻⁶ cm/s; half-life [6]: > 1.67 h
32 | 0.21 | O=C(Nc1nc(-c2ccccc2)cs1)c1ccc(F)c2c(C(=O)C(=O)N3CCN(C(=O)c4ccccc4)CC3)c[nH]c12 | > 300000 | 
33 | 0.19 | O=C(Nc1nncs1)c1ccc(F)c2c(C(=O)C(=O)N3CCN(C(=O)c4ccccc4)CC3)c[nH]c12 | 1740 | 
34 | 0.14 | C[C@@H]1CN(C(=O)c2ccccc2)CCN1C(=O)C(=O)c1c[nH]c2c(C(N)=O)ccc(F)c12 | 141000 | Papp [2]: 5.1 ×10⁻⁶ cm/s; half-life [6]: 0.417 h
35 | 0.057 | O=C(Nc1nccs1)c1ccc(F)c2c(C(=O)C(=O)N3CCN(C(=O)c4ccccc4)CC3)c[nH]c12 | 89000 | Papp [2]: > 30 ×10⁻⁶ cm/s; half-life [6]: 0.0683 h
36 | 0.04 | O=C(Nc1nc2ccccc2[nH]1)c1ccc(F)c2c(C(=O)C(=O)N3CCN(C(=O)c4ccccc4)CC3)c[nH]c12 | 9200 | 
37 | 0.02 | O=C(NC1=NCCS1)c1ccc(F)c2c(C(=O)C(=O)N3CCN(C(=O)c4ccccc4)CC3)c[nH]c12 | > 300000 | 
38 | 0.0058 | Cc1csc(NC(=O)c2ccc(F)c3c(C(=O)C(=O)N4CCN(C(=O)c5ccccc5)CC4)c[nH]c23)n1 | 29000 | 
